Values of other authors in US9011933B2, “Therapeutic methods and pharmaceutical compositions for treating warts with tellurium compounds” (Biomas Ltd., priority 2004, dated 2015).
Like-named read-outs stand apart in the source and are kept apart here.

How the values were obtained:
[1] = rats; intravenous and intramuscular dosage
human viruses = details: studies conducted heretofore

With `Cl[TeH]1(Cl)(Cl)OCCO1` [AS101, ammonium trichloro(dioxyethylene-O,O′)tellurate] as the molecule, how does the “LD50 relative to the immunology effective dose” value [1] read?
The value was 500-1000 folds.

And the “efficacy as an anti-viral agent against human viruses” value (human viruses)?
Its value is “insufficient”.

Which results are given for `N#N` [liquid nitrogen]?
patients remaining clear of warts (warts; after a median of 19 months): 57%; initial cure, patients (warts; liquid nitrogen treatment of warts): 52-83%

With `O=C(O)c1ccccc1O` [salicylic acid] as the molecule, how does the cure rate (warts; topical standard treatment, after 4 weeks, at best) read?
The cure rate was at most 40%.

Which cure rate (warts; typical result of treatment) does the source give for `O=C(O)C(Cl)(Cl)Cl` [trichloro acetic acid] here?
Its cure rate is 64-81%.

Which success rate (warts; intralesional therapy) does the source give for bleomycine here?
The success rate was about 70%.
